Assay results: ChEMBL document CHEMBL1201862, “PubChem BioAssay data set” (2004)
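Briefly, cells in 96-well plates were exposed to five compound concentrations for 48 h, and endpoints were estimated by linear interpolation. GI50: concentration for 50% inhibition of growth.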 Calls of active or inactive are those of the source. Cut-off read from the data, not from the text of the source: active = GI50 up to about 1.1 µM and inactive = higher.

What was measured:
Test in all cases: inhibition of tumour cell growth, NCI panel, 48 h
786-0 = tested on: 786-0
A498 = tested on: A498
A549 = tested on: A549
ACHN = tested on: ACHN
BT-549 = tested on: BT-549
CAKI-1 = tested on: CAKI-1
CCRF-CEM = tested on: CCRF-CEM
COLO 205 = tested on: COLO 205
DU-145 = tested on: DU-145
EKVX = tested on: EKVX
HCT-116 = tested on: HCT-116
HCT-15 = tested on: HCT-15
HL-60 = tested on: HL-60
HOP-62 = tested on: HOP-62
HOP-92 = tested on: HOP-92
HT-29 = tested on: HT-29
Hs-578T = tested on: Hs-578T
IGROV-1 = tested on: IGROV-1
KM12 = tested on: KM12
LOX IMVI = tested on: LOX IMVI
M14 = tested on: M14
MCF7 = tested on: MCF7
MDA-MB-231 = tested on: MDA-MB-231
MDA-MB-435 = tested on: MDA-MB-435
MDA-N = tested on: MDA-N
MOLT-4 = tested on: MOLT-4
NCI-H226 = tested on: NCI-H226
NCI-H23 = tested on: NCI-H23
NCI-H460 = tested on: NCI-H460
NCI-H522 = tested on: NCI-H522
NCI/ADR-RES = tested on: NCI/ADR-RES
OVCAR-3 = tested on: OVCAR-3
OVCAR-4 = tested on: OVCAR-4
OVCAR-5 = tested on: OVCAR-5
OVCAR-8 = tested on: OVCAR-8
PC-3 = tested on: PC-3
SF-268 = tested on: SF-268
SF-295 = tested on: SF-295
SF-539 = tested on: SF-539
SK-MEL-28 = tested on: SK-MEL-28
SK-MEL-2 = tested on: SK-MEL-2
SK-MEL-5 = tested on: SK-MEL-5
SK-OV-3 = tested on: SK-OV-3
SN12C = tested on: SN12C
SNB-19 = tested on: SNB-19
SNB-75 = tested on: SNB-75
SW-620 = tested on: SW-620
T47D = tested on: T47D
TK-10 = tested on: TK-10
U-251 = tested on: U-251
UACC-257 = tested on: UACC-257
UACC-62 = tested on: UACC-62
UO-31 = tested on: UO-31
HCC 2998 = tested on: HCC 2998
Malme-3M = tested on: Malme-3M
RPMI-8226 = tested on: RPMI-8226
RXF 393 = tested on: RXF 393
K562 = tested on: K562

Compound: C=C(C)CC1=C(OCC)C(OC)(OCC)C1=O (configuration not stated)
- GI50 (786-0): > 100 µM (inactive)
- GI50 (A498): > 100 µM (inactive)
- GI50 (A549): > 100 µM (inactive)
- GI50 (ACHN): > 100 µM (inactive)
- GI50 (BT-549): 40.3 µM (inactive)
- GI50 (CAKI-1): > 100 µM (inactive)
- GI50 (CCRF-CEM): > 100 µM (inactive)
- GI50 (COLO 205): > 100 µM (inactive)
- GI50 (DU-145): > 100 µM (inactive)
- GI50 (EKVX): > 100 µM (inactive)
- GI50 (HCT-116): > 100 µM (inactive)
- GI50 (HCT-15): > 100 µM
- GI50 (HL-60): > 100 µM (inactive)
- GI50 (HOP-62): > 100 µM (inactive)
- GI50 (HOP-92): > 100 µM (inactive)
- GI50 (HT-29): > 100 µM (inactive)
- GI50 (Hs-578T): > 100 µM (inactive)
- GI50 (IGROV-1): > 100 µM (inactive)
- GI50 (KM12): > 100 µM (inactive)
- GI50 (LOX IMVI): > 100 µM (inactive)
- GI50 (M14): > 100 µM (inactive)
- GI50 (MCF7): > 100 µM (inactive)
- GI50 (MDA-MB-231): > 100 µM (inactive)
- GI50 (MDA-MB-435): > 100 µM (inactive)
- GI50 (MDA-N): > 100 µM (inactive)
- GI50 (MOLT-4): > 100 µM (inactive)
- GI50 (NCI-H226): > 100 µM (inactive)
- GI50 (NCI-H23): > 100 µM (inactive)
- GI50 (NCI-H460): > 100 µM (inactive)
- GI50 (NCI-H522): 47.8 µM (inactive)
- GI50 (NCI/ADR-RES): > 100 µM (inactive)
- GI50 (OVCAR-3): > 100 µM (inactive)
- GI50 (OVCAR-4): > 100 µM (inactive)
- GI50 (OVCAR-5): > 100 µM (inactive)
- GI50 (OVCAR-8): > 100 µM (inactive)
- GI50 (PC-3): > 100 µM (inactive)
- GI50 (SF-268): > 100 µM (inactive)
- GI50 (SF-295): > 100 µM (inactive)
- GI50 (SF-539): > 100 µM (inactive)
- GI50 (SK-MEL-28): > 100 µM (inactive)
- GI50 (SK-MEL-2): > 100 µM (inactive)
- GI50 (SK-MEL-5): > 100 µM (inactive)
- GI50 (SK-OV-3): > 100 µM (inactive)
- GI50 (SN12C): > 100 µM (inactive)
- GI50 (SNB-19): > 100 µM (inactive)
- GI50 (SNB-75): > 100 µM (inactive)
- GI50 (SW-620): > 100 µM (inactive)
- GI50 (T47D): > 100 µM (inactive)
- GI50 (TK-10): > 100 µM (inactive)
- GI50 (U-251): > 100 µM (inactive)
- GI50 (UACC-257): > 100 µM (inactive)
- GI50 (UACC-62): > 100 µM (inactive)
- GI50 (UO-31): > 100 µM (inactive)

Compound: C#CCNCC(=O)O
- GI50 (786-0): > 100 µM (inactive)
- GI50 (A498): > 100 µM (inactive)
- GI50 (A549): > 100 µM (inactive)
- GI50 (ACHN): > 100 µM (inactive)
- GI50 (BT-549): > 100 µM (inactive)
- GI50 (CAKI-1): > 100 µM (inactive)
- GI50 (CCRF-CEM): > 100 µM (inactive)
- GI50 (COLO 205): > 100 µM (inactive)
- GI50 (DU-145): > 100 µM (inactive)
- GI50 (EKVX): > 100 µM (inactive)
- GI50 (HCC 2998): > 100 µM (inactive)
- GI50 (HCT-116): > 100 µM (inactive)
- GI50 (HCT-15): > 100 µM
- GI50 (HOP-62): > 100 µM (inactive)
- GI50 (HOP-92): > 100 µM (inactive)
- GI50 (HT-29): > 100 µM (inactive)
- GI50 (Hs-578T): > 100 µM (inactive)
- GI50 (IGROV-1): > 100 µM (inactive)
- GI50 (KM12): > 100 µM (inactive)
- GI50 (M14): > 100 µM (inactive)
- GI50 (MCF7): > 100 µM (inactive)
- GI50 (MDA-MB-231): > 100 µM (inactive)
- GI50 (MDA-MB-435): > 100 µM (inactive)
- GI50 (MDA-N): > 100 µM (inactive)
- GI50 (MOLT-4): > 100 µM (inactive)
- GI50 (Malme-3M): > 100 µM (inactive)
- GI50 (NCI-H226): > 100 µM (inactive)
- GI50 (NCI-H23): > 100 µM (inactive)
- GI50 (NCI-H522): > 100 µM (inactive)
- GI50 (NCI/ADR-RES): > 100 µM (inactive)
- GI50 (OVCAR-3): > 100 µM (inactive)
- GI50 (OVCAR-4): > 100 µM (inactive)
- GI50 (OVCAR-5): > 100 µM (inactive)
- GI50 (OVCAR-8): > 100 µM (inactive)
- GI50 (PC-3): > 100 µM (inactive)
- GI50 (RPMI-8226): > 100 µM (inactive)
- GI50 (RXF 393): > 100 µM (inactive)
- GI50 (SF-268): > 100 µM (inactive)
- GI50 (SF-295): > 100 µM (inactive)
- GI50 (SF-539): > 100 µM (inactive)
- GI50 (SK-MEL-28): > 100 µM (inactive)
- GI50 (SK-MEL-2): > 100 µM (inactive)
- GI50 (SK-MEL-5): > 100 µM (inactive)
- GI50 (SK-OV-3): > 100 µM (inactive)
- GI50 (SNB-19): > 100 µM (inactive)
- GI50 (SW-620): > 100 µM (inactive)
- GI50 (T47D): > 100 µM (inactive)
- GI50 (TK-10): > 100 µM (inactive)
- GI50 (U-251): > 100 µM (inactive)
- GI50 (UACC-257): > 100 µM (inactive)
- GI50 (UACC-62): > 100 µM (inactive)
- GI50 (UO-31): > 100 µM (inactive)

Compound: N#CC12COC3(CCCCC3C1(C#N)C#N)OC2=N (configuration not stated)
- GI50 (786-0): 19.2 µM (inactive)
- GI50 (A498): 18.2 µM (inactive)
- GI50 (A549): 24.7 µM (inactive)
- GI50 (ACHN): 15.1 µM (inactive)
- GI50 (BT-549): 15.4 µM (inactive)
- GI50 (CAKI-1): 3.59 µM (inactive)
- GI50 (CCRF-CEM): 3.53 µM (inactive)
- GI50 (COLO 205): 6.4 µM (inactive)
- GI50 (DU-145): 15.3 µM (inactive)
- GI50 (EKVX): 18.5 µM (inactive)
- GI50 (HCT-116): 12.6 µM (inactive)
- GI50 (HL-60): 2.91 µM (inactive)
- GI50 (HOP-92): 5.06 µM (inactive)
- GI50 (HT-29): 11.3 µM (inactive)
- GI50 (Hs-578T): 17.1 µM (inactive)
- GI50 (IGROV-1): 14.6 µM (inactive)
- GI50 (K562): 10.6 µM (inactive)
- GI50 (KM12): > 10 µM (inactive)
- GI50 (LOX IMVI): 12.9 µM (inactive)
- GI50 (M14): 10.6 µM (inactive)
- GI50 (MCF7): 11.7 µM (inactive)
- GI50 (MDA-MB-231): 15.2 µM (inactive)
- GI50 (MDA-MB-435): 18.9 µM (inactive)
- GI50 (MDA-N): 12.9 µM (inactive)
- GI50 (MOLT-4): 10.9 µM (inactive)
- GI50 (Malme-3M): 16.3 µM (inactive)
- GI50 (NCI-H226): 22.9 µM (inactive)
- GI50 (NCI-H23): 16.7 µM (inactive)
- GI50 (NCI-H460): 16 µM (inactive)
- GI50 (NCI/ADR-RES): 28.2 µM (inactive)
- GI50 (OVCAR-3): 11.1 µM (inactive)
- GI50 (OVCAR-5): 16.6 µM (inactive)
- GI50 (OVCAR-8): > 10 µM (inactive)
- GI50 (PC-3): 13.8 µM (inactive)
- GI50 (RXF 393): 13.1 µM (inactive)
- GI50 (SF-268): 12.7 µM (inactive)
- GI50 (SF-295): 19.5 µM (inactive)
- GI50 (SF-539): 13.9 µM (inactive)
- GI50 (SK-MEL-28): 14.6 µM (inactive)
- GI50 (SK-MEL-2): 12.7 µM (inactive)
- GI50 (SK-MEL-5): 11.4 µM (inactive)
- GI50 (SK-OV-3): 45.7 µM (inactive)
- GI50 (SN12C): 12.3 µM (inactive)
- GI50 (SNB-19): 17.8 µM (inactive)
- GI50 (SNB-75): 14 µM (inactive)
- GI50 (SW-620): 10.3 µM (inactive)
- GI50 (T47D): 11 µM (inactive)
- GI50 (TK-10): 16.2 µM (inactive)
- GI50 (U-251): 8.87 µM (inactive)
- GI50 (UACC-257): 17.4 µM (inactive)
- GI50 (UACC-62): 14.7 µM (inactive)
- GI50 (UO-31): 15.2 µM (inactive)
